Results reported in PubChem BioAssay (NCI).
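Following 48 hours of exposure in 96-well plates, responses at five concentrations were used to interpolate endpoints linearly. TGI denotes the concentration required for complete inhibition of growth.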

Tests used:
Experiment in all cases: NCI tumour cell line growth inhibition, 48 h
[1] = test system: SNB-78 CNS
[2] = test system: CCRF-CEM leukemia
[3] = test system: TK-10 renal
[4] = test system: SF-268 CNS
[5] = test system: HOP-62 NSCLC
[6] = test system: A549 NSCLC
[7] = test system: MOLT-4 leukemia
[8] = test system: SW-620 colon
[9] = test system: XF 498 CNS
[10] = test system: U251 CNS
[11] = test system: HCC-2998 colon
[12] = test system: M14 melanoma
[13] = test system: SK-MEL-2 melanoma
[14] = test system: IGROV1 ovarian
[15] = test system: SF-539 CNS
[16] = test system: LXFL 529 NSCLC
[17] = test system: SNB-19 CNS
[18] = test system: SK-OV-3 ovarian
[19] = test system: SF-295 CNS
[20] = test system: HL-60(TB) leukemia
[21] = test system: LOX IMVI melanoma
[22] = test system: NCI-H23 lung
[23] = test system: SK-MEL-28 melanoma
[24] = test system: NCI-H226 lung
[25] = test system: SR leukemia
[26] = test system: HCT-116 colon
[27] = test system: NCI-H522 lung
[28] = test system: HT29 colon
[29] = test system: KM12 colon
[30] = test system: CAKI-1 renal
[31] = test system: UACC-62 melanoma
[32] = test system: EKVX NSCLC
[33] = test system: A498 renal
[34] = test system: OVCAR-5 ovarian
[35] = test system: ACHN renal
[36] = test system: OVCAR-3 ovarian
[37] = test system: UACC-257 melanoma
[38] = test system: UO-31 renal
[39] = test system: HCT-15 colon
[40] = test system: 786-0 renal
[41] = test system: NCI-H460 lung
[42] = test system: RXF 393 renal
[43] = test system: SN12C renal
[44] = test system: SNB-75 CNS
[45] = test system: HOP-92 NSCLC
[46] = test system: K-562 leukemia
[47] = test system: OVCAR-8 ovarian
[48] = test system: DMS 273 small cell lung
[49] = test system: RPMI-8226 leukemia
[50] = test system: SK-MEL-5 melanoma
[51] = test system: KM20L2 colon
[52] = test system: OVCAR-4 ovarian
[53] = test system: DLD-1 colon
[54] = test system: MALME-3M melanoma
[55] = test system: DMS 114 small cell lung
[56] = test system: HOP-18 NSCLC
[57] = test system: T-47D breast
[58] = test system: DU-145 prostate
[59] = test system: HS 578T breast
[60] = test system: MCF7 breast
[61] = test system: MDA-MB-231 breast
[62] = test system: NCI/ADR-RES ovarian
[63] = test system: COLO 205 colon
[64] = test system: BT-549 breast
[65] = test system: PC-3 prostate
[66] = test system: MDA-N
[67] = test system: MDA-MB-435

CN(C)c1c([O-])c(=[N+](C)C)c1=O
TGI [1]: > 100 µM
TGI [2]: > 100 µM
TGI [3]: > 100 µM
TGI [4]: > 100 µM
TGI [5]: > 100 µM
TGI [6]: > 100 µM
TGI [7]: > 100 µM
TGI [8]: > 100 µM
TGI [9]: > 100 µM
TGI [10]: > 100 µM
TGI [11]: > 100 µM
TGI [12]: > 100 µM
TGI [13]: > 100 µM
TGI [14]: > 100 µM
TGI [15]: > 100 µM
TGI [16]: > 100 µM
TGI [17]: > 100 µM
TGI [18]: > 100 µM
TGI [19]: > 100 µM
TGI [20]: > 100 µM
TGI [21]: > 100 µM
TGI [22]: > 100 µM
TGI [23]: > 100 µM
TGI [24]: > 100 µM
TGI [25]: > 100 µM
TGI [26]: > 100 µM
TGI [27]: > 100 µM
TGI [28]: > 100 µM
TGI [29]: > 100 µM
TGI [30]: > 100 µM
TGI [31]: > 100 µM
TGI [32]: > 100 µM
TGI [33]: > 100 µM
TGI [34]: > 100 µM
TGI [35]: > 100 µM
TGI [36]: > 100 µM
TGI [37]: > 100 µM
TGI [38]: > 100 µM
TGI [39]: > 100 µM
TGI [40]: > 100 µM
TGI [41]: > 100 µM
TGI [42]: > 100 µM
TGI [43]: > 100 µM
TGI [44]: > 100 µM
TGI [45]: > 100 µM
TGI [46]: > 100 µM
TGI [47]: > 100 µM
TGI [48]: > 100 µM

c1ccc(SC2CCSc3ccccc3C2Sc2ccccc2)cc1 (stereo not drawn)
TGI [1]: > 100 µM
TGI [2]: > 100 µM
TGI [49]: > 100 µM
TGI [3]: > 100 µM
TGI [50]: > 100 µM
TGI [4]: > 100 µM
TGI [5]: > 100 µM
TGI [51]: > 100 µM
TGI [52]: > 100 µM
TGI [6]: > 100 µM
TGI [7]: > 100 µM
TGI [8]: > 100 µM
TGI [9]: > 100 µM
TGI [10]: > 100 µM
TGI [11]: > 100 µM
TGI [12]: > 100 µM
TGI [15]: > 100 µM
TGI [16]: > 100 µM
TGI [17]: > 100 µM
TGI [19]: > 100 µM
TGI [20]: > 100 µM
TGI [21]: > 100 µM
TGI [24]: > 100 µM
TGI [26]: > 100 µM
TGI [27]: > 100 µM
TGI [28]: > 100 µM
TGI [53]: > 100 µM
TGI [29]: > 100 µM
TGI [30]: 85 µM
TGI [32]: > 100 µM
TGI [33]: > 100 µM
TGI [35]: > 100 µM
TGI [36]: > 100 µM
TGI [37]: > 100 µM
TGI [38]: > 100 µM
TGI [39]: > 100 µM
TGI [40]: > 100 µM
TGI [41]: > 100 µM
TGI [43]: > 100 µM
TGI [44]: > 100 µM
TGI [45]: > 100 µM
TGI [46]: > 100 µM
TGI [47]: > 100 µM
TGI [48]: > 100 µM

COc1ccc(NC(=O)/C(N=O)=C(/C)O)cc1
TGI [1]: > 100 µM
TGI [2]: > 100 µM
TGI [54]: > 100 µM
TGI [49]: > 100 µM
TGI [3]: > 100 µM
TGI [50]: > 100 µM
TGI [4]: > 100 µM
TGI [5]: > 100 µM
TGI [51]: > 100 µM
TGI [6]: > 100 µM
TGI [7]: > 100 µM
TGI [8]: 30 µM
TGI [10]: > 100 µM
TGI [11]: > 100 µM
TGI [12]: > 100 µM
TGI [13]: > 100 µM
TGI [14]: > 100 µM
TGI [15]: > 100 µM
TGI [16]: > 100 µM
TGI [17]: > 100 µM
TGI [18]: > 100 µM
TGI [19]: > 100 µM
TGI [55]: > 100 µM
TGI [20]: > 100 µM
TGI [21]: 47.9 µM
TGI [56]: > 100 µM
TGI [22]: > 100 µM
TGI [23]: > 100 µM
TGI [24]: > 100 µM
TGI [25]: > 100 µM
TGI [26]: > 100 µM
TGI [28]: > 100 µM
TGI [53]: > 100 µM
TGI [29]: > 100 µM
TGI [30]: > 100 µM
TGI [31]: > 100 µM
TGI [32]: > 100 µM
TGI [33]: > 100 µM
TGI [34]: > 100 µM
TGI [35]: > 100 µM
TGI [37]: > 100 µM
TGI [38]: > 100 µM
TGI [39]: 36.8 µM
TGI [40]: > 100 µM
TGI [41]: 53.5 µM
TGI [42]: > 100 µM
TGI [43]: > 100 µM
TGI [44]: > 100 µM
TGI [45]: > 100 µM
TGI [46]: > 100 µM
TGI [47]: > 100 µM
TGI [48]: > 100 µM

COc1cc(C2SCC(=O)N2c2ccc(Cl)c(Cl)c2)cc(OC)c1OC (stereo not drawn)
TGI [57]: > 63.6 µM
TGI [2]: 51.3 µM
TGI [54]: > 100 µM
TGI [49]: > 78.6 µM
TGI [3]: > 100 µM
TGI [50]: > 100 µM
TGI [4]: > 100 µM
TGI [5]: > 100 µM
TGI [52]: > 100 µM
TGI [6]: > 100 µM
TGI [7]: > 67 µM
TGI [8]: > 100 µM
TGI [10]: > 100 µM
TGI [11]: > 100 µM
TGI [12]: > 100 µM
TGI [13]: > 100 µM
TGI [58]: > 100 µM
TGI [14]: > 100 µM
TGI [15]: > 100 µM
TGI [17]: > 100 µM
TGI [18]: > 100 µM
TGI [59]: > 100 µM
TGI [19]: > 100 µM
TGI [20]: > 73.9 µM
TGI [21]: > 100 µM
TGI [60]: > 100 µM
TGI [22]: > 100 µM
TGI [23]: > 100 µM
TGI [24]: > 79.4 µM
TGI [25]: 83.8 µM
TGI [26]: > 100 µM
TGI [61]: > 100 µM
TGI [27]: > 100 µM
TGI [62]: > 100 µM
TGI [28]: > 100 µM
TGI [63]: > 100 µM
TGI [29]: 51 µM
TGI [30]: > 100 µM
TGI [31]: > 21.9 µM
TGI [32]: > 87.9 µM
TGI [33]: > 100 µM
TGI [34]: 98.3 µM
TGI [35]: > 100 µM
TGI [64]: 98 µM
TGI [36]: > 100 µM
TGI [65]: > 100 µM
TGI [37]: > 100 µM
TGI [38]: > 100 µM
TGI [39]: > 100 µM
TGI [40]: > 100 µM
TGI [66]: 45.9 µM
TGI [41]: > 100 µM
TGI [42]: 43.5 µM
TGI [43]: > 100 µM
TGI [67]: 34 µM
TGI [44]: > 100 µM
TGI [45]: > 100 µM
TGI [46]: > 100 µM
TGI [47]: > 100 µM
